Laboratory results as given in patent US6573275B1, “Bicyclic amines” (Syngenta Limited, priority 1995, dated 2003).

Tested on: peach aphid (Myzus persicae)
Assay: Insecticidal test against peach aphid, infested Chinese cabbage leaves sprayed
Assay type: in vivo
Conditions: peach aphid (Myzus persicae) on Chinese cabbage leaves, sprayed with 500 ppm composition unless otherwise stated, mortality assessed after 3 days
Description: This Example illustrates the insecticidal properties of the compounds of Formula I. The activity of the compounds of Formula I was determined using a variety of pests. The pests were treated with a liquid composition containing 500 parts per million (ppm) by weight of the compound unless otherwise stated. The compositions were made by dissolving the compound in acetone and ethanol (50:50) mixture and diluting the solutions with water containing 0.05% by weight of a wetting agent sold under the trade name “SYNPERONIC” NP8 until the liquid composition contained the required concentration of the compound. “SYNPERONIC” is a Registered Trade Mark.
The test procedure adopted with regard to each pest was basically the same and comprised supporting a number of the pests on a medium which was usually a substrate, a host plant or a foodstuff on which the pests feed, and treating either or both the medium and the pests with the compositions. The mortality of the pests was then assessed at periods usually varying from two to five days after the treatment.
In this test Chinese cabbage leaves were infested with aphids, the infested leaves were sprayed with the test composition, and the mortality assessed after 3 days.

| SMILES | Score (grading of mortality) |
| --- | --- |
| COC(=O)C(C)N1C2CCC1CC(C#N)(c1cncc(Cl)c1)C2 (racemic) [Compound 212] | A (A indicates 80-100% mortality) |
| COc1ccc(C2(C#N)CC3CCC(C2)N3Cc2ccccc2)cc1 (single isomer, unassigned) [Compound 6] | C (C indicates less than 40% mortality) |
| COc1ccc(C2(C#N)CC3CCC(C2)N3Cc2ccccc2)cc1 (single isomer, unassigned) [Compound 7] | C (C indicates less than 40% mortality) |
| N#CC1(c2ccccc2)CC2CCC(C1)N2Cc1ccccc1 (single isomer, unassigned) [Compound 31] | C (C indicates less than 40% mortality) |
| N#CC1(c2ccccc2)CC2CCC(C1)N2Cc1ccccc1 (single isomer, unassigned) [Compound 32] | A (A indicates 80-100% mortality) |
| COC(=O)C(C)N1C2CCC1CC(C#N)(c1cncc(Cl)c1)C2 (single isomer, unassigned) [Compound 211] | A (A indicates 80-100% mortality) |
| COC(=O)C(C)N1C2CCC1CC(C#N)(c1cncc(Cl)c1)C2 (single isomer, unassigned) [Compound 213] | A (A indicates 80-100% mortality) |
| CN1C2CCC1CC(C#N)(c1cc(Cl)cc(Cl)c1)C2 (centres unmarked) [Compound 1] | A (A indicates 80-100% mortality) |
| CN1C2CCC1CC(C#N)(c1cc(F)cc(F)c1)C2 (stereo not drawn) [Compound 2, exo-3-(3,5-difluorophenyl)-endo-3-cyano-8-methyl-8-azabicyclo[3.2.1]octane] | A (A indicates 80-100% mortality) |
| CN1C2CCC1CC(C#N)(c1cccc(F)c1F)C2 (centres unmarked) [Compound 3] | A (A indicates 80-100% mortality) |
| CN1C2CCC1CC(C#N)(c1c(F)c(F)c(F)c(F)c1F)C2 (centres unmarked) [Compound 4] | A (A indicates 80-100% mortality) |
| CN1C2CCC1CC(C#N)(c1cccc(Cl)c1Cl)C2 (centres unmarked) [Compound 5] | A (A indicates 80-100% mortality) |
| N#CC1(c2ccccc2)CC2CCC(C1)N2Cc1ccccc1 (centres unmarked) [Compound 8, 3-phenyl-3-cyano-8-benzyl-8-azabicyclo[3.2.1]octane] | A (A indicates 80-100% mortality) |
| N#CC1(c2cc(F)cc(F)c2)CC2CCC(C1)N2 (centres unmarked) [Compound 9] | A (A indicates 80-100% mortality) |
| N#CC1(c2cc(F)cc(F)c2)CC2CCC(C1)N2Cc1ccccc1 (centres unmarked) [Compound 10] | A (A indicates 80-100% mortality) |
| N#CC1(c2cc(F)cc(F)c2)CC2CCC(C1)N2Cc1cnc(Cl)c(Cl)c1 (centres unmarked) [Compound 11] | A (A indicates 80-100% mortality) |
| N#CC1(c2cc(F)cc(F)c2)CC2CCC(C1)N2Cc1ccccn1 (centres unmarked) [Compound 12] | A (A indicates 80-100% mortality) |
| Cc1cccc(CN2C3CCC2CC(C#N)(c2cc(F)cc(F)c2)C3)c1 (centres unmarked) [Compound 13] | B (B indicates 40-79% mortality) |
| N#CC1(c2cc(F)cc(F)c2)CC2CCC(C1)N2Cc1ccc(Cl)cc1 (centres unmarked) [Compound 14] | A (A indicates 80-100% mortality) |

| SMILES | Score (grading of mortality) |
| --- | --- |
| N#CC1(c2cc(F)cc(F)c2)CC2CCC(C1)N2Cc1cccnc1 (centres unmarked) [Compound 15] | A (A indicates 80-100% mortality) |
| N#CC1(c2cc(F)cc(F)c2)CC2CCC(C1)N2Cc1cc(Cl)cc(Cl)c1 (centres unmarked) [Compound 17] | C (C indicates less than 40% mortality) |
| N#CC1(c2cc(F)cc(F)c2)CC2CCC(C1)N2CC=C(F)F (centres unmarked) [Compound 18] | A (A indicates 80-100% mortality) |
| N#CC1(c2cc(F)cc(F)c2)CC2CCC(C1)N2CC(O)c1ccccc1 (centres unmarked) [Compound 19] | C (C indicates less than 40% mortality) |
| N#CC1(c2cc(F)cc(F)c2)CC2CCC(C1)N2C(CO)c1ccccc1 (centres unmarked) [Compound 20] | C (C indicates less than 40% mortality) |
| C=CCN1C2CCC1CC(C#N)(c1cc(F)cc(F)c1)C2 (centres unmarked) [Compound 21] | A (A indicates 80-100% mortality) |
| C#CCN1C2CCC1CC(C#N)(c1cc(F)cc(F)c1)C2 (centres unmarked) [Compound 22] | A (A indicates 80-100% mortality) |
| N#CC1(c2cc(F)cc(F)c2)CC2CCC(C1)N2CCF (centres unmarked) [Compound 23] | A (A indicates 80-100% mortality) |
| N#CC1(c2cc(F)cc(F)c2)CC2CCC(C1)N2CCO (centres unmarked) [Compound 24] | A (A indicates 80-100% mortality) |
| COCCN1C2CCC1CC(C#N)(c1cc(F)cc(F)c1)C2 (centres unmarked) [Compound 25] | A (A indicates 80-100% mortality) |
| N#CCCN1C2CCC1CC(C#N)(c1cc(F)cc(F)c1)C2 (centres unmarked) [Compound 26] | B (B indicates 40-79% mortality) |
| N#CC1(c2cc(F)cc(F)c2)CC2CCC(C1)N2Cc1ccc(Cl)s1 (centres unmarked) [Compound 27] | A (A indicates 80-100% mortality) |
| N#CC1(c2cc(F)cc(F)c2)CC2CCC(C1)N2c1cccc(Cl)n1 (centres unmarked) [Compound 28] | C (C indicates less than 40% mortality) |
| Cc1ncc(CN2C3CCC2CC(C#N)(c2cc(F)cc(F)c2)C3)s1 (centres unmarked) [Compound 29] | B (B indicates 40-79% mortality) |
| COC(=N)CN1C2CCC1CC(C#N)(c1cc(F)cc(F)c1)C2 (centres unmarked) [Compound 30] | A (A indicates 80-100% mortality) |
| CN1C2CCC1CC(C#N)(c1cccnc1)C2 (stereo not drawn) [Compound 33, exo-3-(pyrid-3-yl)-endo-3-cyano-8-methyl-8-azabicyclo[3.2.1]octane] | A (A indicates 80-100% mortality) |
| N#C[C@@]1(c2cccnc2)C[C@H]2CC[C@@H](C1)N2CCF [Compound 34, exo-3-(pyrid-3-yl)-endo-3-cyano-8-(2-fluoroethyl)-8-azabicyclo[3.2.1]octane] | A (A indicates 80-100% mortality) |
| C=CCN1C2CCC1CC(C#N)(c1cccnc1)C2 (centres unmarked) [Compound 35] | A (A indicates 80-100% mortality) |
| N#CC1(c2cccnc2)CC2CCC(C1)N2 (stereo not drawn) [Compound 36, exo-3-(pyrid-3-yl)-endo-3-cyano-8-azabicyclo[3.2.1]octane] | A (A indicates 80-100% mortality) |

| SMILES | Score (grading of mortality) |
| --- | --- |
| N#CC1(c2cccnc2)CC2CCC(C1)N2Cc1ccccc1 (stereo not drawn) [Compound 37, exo-3-(pyrid-3-yl)-endo-3-cyano-8-benzyl-8-azabicyclo[3.2.1]octane] | A (A indicates 80-100% mortality) |
| CCN1C2CCC1CC(C#N)(c1cccnc1)C2 (centres unmarked) [Compound 38] | A (A indicates 80-100% mortality) |
| CC(C)(C)OC(=O)CN1C2CCC1CC(C#N)(c1cccnc1)C2 (centres unmarked) [Compound 39] | C (C indicates less than 40% mortality) |
| C[n+]1cccc(C2(C#N)CC3CCC(C2)N3C(=O)OC(C)(C)C)c1.[I-] (centres unmarked) [Compound 40] | A (A indicates 80-100% mortality) |
| CN1C2CCC1CC(C#N)(c1ccc(Cl)nn1)C2 (stereo not drawn) [Compound 41, exo-3-(6-chloropyridazin-3-yl)-endo-3-cyano-8-methyl-8-azabicyclo[3.2.1]octane] | A (A indicates 80-100% mortality) |
| CCCN1C2CCC1CC(C#N)(c1cccnc1)C2 (stereo not drawn) [Compound 42, exo-3-(pyrid-3-yl)-endo-3-cyano-8-(prop-1-yl)-8-azabicyclo[3.2.1]octane] | A (A indicates 80-100% mortality) |
| CN1C2CCC1CC(C#N)(c1cncc(Cl)n1)C2 (stereo not drawn) [Compound 43, exo3-(6-chloropyrazin-2-yl)-endo-3-cyano-8-methyl-8-azabicyclo[3.2.1]octane] | A (A indicates 80-100% mortality) |
| CS(=O)(=O)CS(=O)(=O)N1C2CCC1CC(C#N)(c1cccnc1)C2 (stereo not drawn) [Compound 44, exo-3-(pyrid-3-yl)-endo-3-cyano-8-(methylsulphonylmethylsulphonyl)-8-azabicyclo[3.2.1]octane] | A (A indicates 80-100% mortality) |
| CS(=O)(=O)N1C2CCC1CC(C#N)(c1cccnc1)C2 (centres unmarked) [Compound 45] | C (C indicates less than 40% mortality) |
| CN1C2CCC1CC(C#N)(c1ccc(Cl)nc1)C2 (stereo not drawn) [Compound 46, exo-3-(6-chloropyrid-3-yl)-endo-3-cyano-8-methyl-8-azabicyclo[3.2.1]octane] | A (A indicates 80-100% mortality) |
| COCN1C2CCC1CC(C#N)(c1cccnc1)C2 (centres unmarked) [Compound 47] | A (A indicates 80-100% mortality) |
| CCOCN1C2CCC1CC(C#N)(c1cccnc1)C2 (centres unmarked) [Compound 48] | A (A indicates 80-100% mortality) |
| N#CCN1C2CCC1CC(C#N)(c1cccnc1)C2 (centres unmarked) [Compound 49] | A (A indicates 80-100% mortality) |
| CCOC(=O)CN1C2CCC1CC(C#N)(c1cccnc1)C2 (centres unmarked) [Compound 50] | A (A indicates 80-100% mortality) |
| COC(=O)CN1C2CCC1CC(C#N)(c1cccnc1)C2 (stereo not drawn) [Compound 51, exo-3-(pyrid-3-yl)-endo-3-cyano-8-(methoxycarbonylmethyl)-8-azabicyclo[3.2.1]octane] | A (A indicates 80-100% mortality) |
| CN1C2CCC1CC(C#N)(c1ccc([N+](=O)[O-])cc1F)C2 (centres unmarked) [Compound 52] | C (C indicates less than 40% mortality) |
| CN1C2CCC1CC(C#N)(c1cccc(F)c1)C2 (centres unmarked) [Compound 53] | A (A indicates 80-100% mortality) |
| N#CC1(c2cccnc2)CC2CCC(C1)N2CCO (centres unmarked) [Compound 54] | A (A indicates 80-100% mortality) |
